Laboratory results from patent US12655116B2, “Substituted isophthalic acid diamides” (Bayer Aktiengesellschaft, priority 2020, dated 2026).

Legend:
SETVI [1] = assay: Pre-emergence herbicidal action against SETVI; type: in vivo, Setaria viridis; conditions: dosage 80 g/ha
Method in brief: (§1)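 Sandy loam pots, seeds covered with soil, then surface-treated with WP or EC formulations at 600–800 l/ha water plus 0.2% wetting agent. Greenhouse, 3 weeks. Percent damage vs untreated controls.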

ALOMY [2] = assay: Pre-emergence herbicidal action against ALOMY; type: in vivo, Alopecurus myosuroides; conditions: pre-emergence
Method in brief: as §1

ECHCG [3] = assay: Post-emergence herbicidal action against ECHCG; type: in vivo, Echinochloa crus-galli
Method in brief: (§2)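 Herbicidal action is a visual percentage rating (0% = as untreated control, 100% = plants dead) made roughly 3 weeks after treatment. Plants were grown in sandy loam in the greenhouse and treated at the one-leaf stage, 2 to 3 weeks post-sowing. Treatment was a foliar spray of wettable-powder or emulsion-concentrate formulations at 600 to 800 l/ha water plus 0.2% wetting agent.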

PHBPU [4] = assay: Pre-emergence herbicidal action against PHBPU; type: in vivo, Pharbitis purpurea; conditions: dosage 80 g/ha
Source text: Seeds of monocotyledonous and dicotyledonous weed plants and crop plants are laid out in sandy loam soil in wood-fiber pots and covered with soil. The compounds of the invention, formulated in the form of wettable powders (WP) or as emulsion concentrates (EC), are then applied to the surface of the covering soil in the form of an aqueous suspension or emulsion at a water application rate equivalent to 600 to 800 l/ha, with addition of 0.2% wetting agent. After the treatment, the pots are placed in a greenhouse and kept under good growth conditions for the trial plants. The damage to the test plants is scored visually after a test period of 3 weeks by comparison with untreated controls (herbicidal activity in percent (%): 100% activity=the plants have died, 0% activity=like control plants). […] The tables below illustrate, in an illustrative manner, the post-emergence herbicidal action of the compounds of the invention, the herbicidal activity being stated in percent.

ABUTH [5] = assay: Pre-emergence herbicidal action against ABUTH; type: in vivo, Abutilon theophrasti
Method in brief: as §1

AVEFA = assay: Pre-emergence herbicidal action against AVEFA; type: in vivo, Avena fatua; conditions: 80 g/ha, pre-emergence
Method in brief: as §1

VIOTR [6] = assay: Pre-emergence herbicidal action against VIOTR; type: in vivo, Viola tricolor
Method in brief: as §1

ECHCG [7] = assay: Pre-emergence herbicidal action against ECHCG; type: in vivo, Echinochloa crus-galli
Method in brief: as §1

AMARE [8] = assay: Pre-emergence herbicidal action against AMARE; type: in vivo, Amaranthus retroflexus
Method in brief: as §1

MATIN [9] = assay: Pre-emergence herbicidal action against MATIN; type: in vivo, Matricaria inodora
Method in brief: as §1

SETVI [10] = assay: Post-emergence herbicidal action against SETVI; type: in vivo, Setaria viridis
Method in brief: as §2

MATIN [11] = assay: Post-emergence herbicidal action against MATIN; type: in vivo, Matricaria inodora
Method in brief: as §2

VERPE [12] = assay: Pre-emergence herbicidal action against VERPE; type: in vivo, Veronica persica
Method in brief: as §1

ABUTH [13] = assay: Post-emergence herbicidal action against ABUTH; type: in vivo, Abutilon theophrasti; conditions: visual assessment about 3 weeks after treatment vs untreated controls
Method in brief: as §2

VIOTR [14] = assay: Post-emergence herbicidal action against VIOTR; type: in vivo, Viola tricolor; conditions: 20 g/ha
Method in brief: as §2

ALOMY [15] = assay: Post-emergence herbicidal action against ALOMY; type: in vivo, Alopecurus myosuroides; conditions: visual assessment about 3 weeks after treatment vs untreated controls
Method in brief: as §2

DIGSA [16] = assay: Pre-emergence herbicidal action against DIGSA; type: in vivo, Digitaria sanguinalis
Method in brief: as §1

PHBPU [17] = assay: Post-emergence herbicidal action against PHBPU; type: in vivo, Pharbitis purpurea; conditions: dosage 20 g/ha
Method in brief: as §2

DIGSA [18] = assay: Post-emergence herbicidal action against DIGSA; type: in vivo, Digitaria sanguinalis; conditions: for Post-emergence action against DIGSA in %: 5 g/ha; for Post-emergence action against DIGSA: 20 g/ha
Method in brief: as §2

VERPE [19] = assay: Post-emergence herbicidal action against VERPE; type: in vivo, Veronica persica; conditions: 20 g/ha
Method in brief: as §2

AMARE [20] = assay: Post-emergence herbicidal action against AMARE; type: in vivo, Amaranthus retroflexus; conditions: 20 g/ha, visual assessment about 3 weeks after treatment, 100% = plants have died, 0% = like control plants
Method in brief: as §2

[21] = 80 g/ha, scored visually after 3 weeks vs untreated controls (100% = plants have died, 0% = like control plants)
[22] = dosage 20 g/ha, scored visually after 3 weeks vs untreated controls, 100% = plants have died, 0% = like control plants
[23] = 20 g/ha, scored visually after 3 weeks vs untreated controls, 100% = plants have died, 0% = like control plants

| Structure (SMILES) | Pre-emergence action against SETVI in % (SETVI [1]) [%] | Pre-emergence action against ALOMY (herbicidal activity) (ALOMY [2]; [21]) [%] | Post-emergence action against ECHCG in % (ECHCG [3]; dosage 20 g/ha) [%] | Pre-emergence action against PHBPU in % (PHBPU [4]) [%] | Pre-emergence action against ABUTH (herbicidal activity) (ABUTH [5]; [21]) [%] | Pre-emergence action against ABUTH (herbicidal activity in percent) (ABUTH [5]; [22]) [%] | Pre-emergence action against AVEFA in % (AVEFA) [%] | Pre-emergence action against VIOTR in % (VIOTR [6]; dosage 20 g/ha) [%] | Pre-emergence action against VIOTR in % (VIOTR [6]; dosage 80 g/ha) [%] | Pre-emergence action against ECHCG in % (ECHCG [7]; 80 g/ha) [%] | Pre-emergence action against AMARE in % (AMARE [8]; [23]) [%] | Pre-emergence action against AMARE in % (AMARE [8]; [21]) [%] | Pre-emergence action against MATIN in % (MATIN [9]; dosage 20 g/ha) [%] | Pre-emergence action against MATIN in % (MATIN [9]; dosage 80 g/ha) [%] | Post-emergence action against SETVI in % (SETVI [10]; dosage 20 g/ha) [%] | Post-emergence action against MATIN in % (MATIN [11]; dosage 20 g/ha) [%] | Pre-emergence action against VERPE in % (VERPE [12]; dosage 80 g/ha) [%] | Post-emergence action against ALOMY in % (ALOMY [15]; dosage 20 g/ha) [%] | Pre-emergence action against DIGSA in % (DIGSA [16]; dosage 80 g/ha) [%] | Post-emergence action against PHBPU in % (PHBPU [17]) [%] | other results |
| --- | --- | --- | --- | --- | --- | --- | --- | --- | --- | --- | --- | --- | --- | --- | --- | --- | --- | --- | --- | --- | --- |
| Cn1nnnc1NC(=O)c1ccc(C(F)(F)F)c(C(=O)NCC2CC2)c1Br [Example 1-210] | 100 | 80 | 80 | 80 | 100 | 100 | 90 | 100 | 100 | 100 | 100 | 100 | 100 | 100 | 90 | 90 | 80 | 100 | 100 | 100 | Pre-emergence action against ECHCG in % (ECHCG [7]; 20 g/ha): 80%; Post-emergence action against SETVI in % (SETVI [10]; dosage 5 g/ha): 80%; Post-emergence action against MATIN in % (MATIN [11]; dosage 5 g/ha): 80%; Post-emergence action against ABUTH in % (ABUTH [13]; dosage 5 g/ha): 80%; Post-emergence action against ABUTH in % (ABUTH [13]; dosage 20 g/ha): 90%; Post-emergence action against VIOTR in % (VIOTR [14]): 90%; Post-emergence action against ALOMY in % (ALOMY [15]; dosage 5 g/ha): 80%; Pre-emergence action against DIGSA in % (DIGSA [16]; dosage 20 g/ha): 100%; Post-emergence action against DIGSA in % (DIGSA [18]): 80%; Post-emergence action against DIGSA (DIGSA [18]): 90% |
| CCn1nnnc1NC(=O)c1ccc(C(F)(F)F)c(C(=O)NCC2CCCO2)c1C (stereo not drawn) [Example 2-37] | 100 | 90 | 80 | 80 |  |  |  |  | 100 | 80 | 90 | 100 |  |  |  |  | 80 |  | 100 |  | Post-emergence action against VERPE in % (VERPE [19]): 80%; Pre-emergence action against VERPE in % (VERPE [12]; dosage 20 g/ha): 80% |
| CCn1nnnc1NC(=O)c1ccc(Br)c(C(=O)NCC(F)(F)F)c1Cl [Example 2-181] | 100 | 80 | 90 | 80 | 100 | 100 | 90 |  | 80 | 100 | 100 | 100 | 90 | 100 | 90 | 90 | 100 | 90 | 100 | 90 | Post-emergence action against MATIN in % (MATIN [11]; dosage 5 g/ha): 80% |
| CCn1nnnc1NC(=O)c1ccc(C(F)F)c(C(=O)NCC2CC2)c1Br [Example 2-228] | 90 | 80 | 90 | 100 | 100 | 100 | 80 | 100 | 100 | 100 | 100 | 100 | 90 | 100 |  | 80 | 90 | 80 | 100 | 80 | Post-emergence action against ECHCG in % (ECHCG [3]; dosage 5 g/ha): 80%; Post-emergence action at 20 g/ha against AMARE in % (AMARE [20]): 90%; Post-emergence action against VIOTR in % (VIOTR [14]): 80%; Pre-emergence action against DIGSA in % (DIGSA [16]; dosage 20 g/ha): 100%; Post-emergence action against DIGSA in % (DIGSA [18]): 80%; Post-emergence action against DIGSA (DIGSA [18]): 80% |
| Cc1nnc(NC(=O)c2ccc(C(F)(F)F)c(C(=O)NCC(F)(F)F)c2Cl)o1 [Example 6-120] |  |  |  |  |  |  |  |  |  |  |  |  |  |  |  |  |  |  |  |  | pest or weed control at 80 g/ha (SETVI [1]; Setaria viridis, 504 h): 100%; pest or weed control at 80 g/ha (ALOMY [2]; Alopecurus myosuroides, 504 h, 80 g/ha, scored visually after 3 weeks vs untreated controls (100% = plants have died, 0% = like control plants)): 90%; pest or weed control at 20 g/ha (ALOMY [2]; Alopecurus myosuroides, 504 h, 20 g/ha, scored visually after 3 weeks, 100% = plants have died, 0% = like control plants): 80%; pest or weed control at 20 g/ha (ECHCG [3]; Echinochloa crus-galli, 504 h, dosage 20 g/ha): 90%; pest or weed control at 80 g/ha (PHBPU [4]; Ipomoea purpurea, 504 h): 80%; pest or weed control at 20 g/ha (VERPE [19]; Veronica persica, 504 h): 80%; pest or weed control at 80 g/ha (ABUTH [5]; Abutilon theophrasti, 504 h, 80 g/ha, scored visually after 3 weeks vs untreated controls (100% = plants have died, 0% = like control plants)): 100%; pest or weed control at 20 g/ha (ABUTH [5]; Abutilon theophrasti, 504 h, dosage 20 g/ha, scored visually after 3 weeks vs untreated controls, 100% = plants have died, 0% = like control plants, read-out: Pre-emergence action against ABUTH (herbicidal activity in percent)): 80%; pest or weed control at 80 g/ha (AVEFA; Avena fatua, 504 h): 90%; pest or weed control at 80 g/ha (VIOTR [6]; Viola tricolor, 504 h, dosage 80 g/ha): 90%; pest or weed control at 80 g/ha (ECHCG [7]; Echinochloa crus-galli, 504 h, 80 g/ha): 100%; pest or weed control at 20 g/ha (AMARE [8]; Amaranthus retroflexus, 504 h, 20 g/ha, scored visually after 3 weeks vs untreated controls, 100% = plants have died, 0% = like control plants): 100%; pest or weed control at 80 g/ha (AMARE [8]; Amaranthus retroflexus, 504 h, 80 g/ha, scored visually after 3 weeks vs untreated controls, 100% = plants have died, 0% = like control plants): 100%; pest or weed control at 20 g/ha (MATIN [9]; Tripleurospermum inodorum, 504 h, dosage 20 g/ha): 90%; pest or weed control at 80 g/ha (MATIN [9]; Tripleurospermum inodorum, 504 h, dosage 80 g/ha): 90%; pest or weed control at 20 g/ha (AMARE [20]; Amaranthus retroflexus, 504 h): 90%; pest or weed control at 80 g/ha (DIGSA [16]; Digitaria sanguinalis, 504 h, dosage 80 g/ha): 90%; pest or weed control at 20 g/ha (PHBPU [17]; Ipomoea purpurea, 504 h): 90% |
